Patent US11878050B2, “Glycoside hydrolases to treat biofilm-associated infections” (priority 2018, dated 2024)

Experiments:
biofilms = conditions: cited from earlier work; for Summary (biofilm-disrupting ability): Table 1, literature
[1] = test system: S. aureus and P. aeruginosa biofilms; assay: Crystal violet biomass assay; format: cell-based
Description: Crystal violet assay. A traditional in vitro crystal violet (CV) biomass assay was performed by inoculating the wells of a 24-well non-tissue culture treated plate (Falcon®) containing 13 mm plastic cell culture coverslips with 1:100 dilutions of overnight cultures of S. aureus and P. aeruginosa in fresh LB broth, and allowing for 48 hours of growth at 37° C., with shaking at 80 rpm. Planktonic cells were then removed via rinsing with PBS, and the biofilm-coated coverslips were treated with enzyme solutions, vehicle, or heat-inactivated controls. After treatment, the coverslips were rinsed with ddH2O, and the remaining biomass was stained with 1% CV in ddH2O for 20 minutes. Coverslips were then rinsed once more with ddH2O and transferred to fresh wells, in which the CV was eluted in 95% ethanol for 1 hour. The eluted CV from treated vs. untreated samples was quantified via absorbance of 595 nm light in a Synergy H1 Hybrid Reader (Biotek®).

[2] = test system: S. aureus and P. aeruginosa biofilms; assay: In vitro well-plate cell dispersal assay; format: cell-based; conditions: 5% GH solutions, 30 minutes, vs vehicle and heat-inactivated controls
Description: (§1) In vitro cell dispersal. To measure percent dispersal in vitro, the wells of a 24-well non-tissue culture treated plate (Falcon®) were inoculated with 1:100 dilutions of overnight cultures of S. aureus and P. aeruginosa, and biofilms were allowed to grow for 48 hours at 37° C., with shaking at 80 rpm. Following incubation, the supernatant was removed, and each well was gently rinsed with PBS to discard any non-attached biomass. Subsequently, wells were treated with enzyme solutions, vehicle, or heat-inactivated controls. Following treatment, the supernatant was removed and centrifuged at 11,000 rcf for 10 minutes in order to pellet the cells. Cell pellets were then re-suspended in PBS for CFU quantification. Biofilm remaining on the wells were dispersed via sonication and suspended in PBS for CFU quantification. Percent bacterial cell dispersal was calculated by finding the quotient of […].

[3] = test system: S. aureus and P. aeruginosa polymicrobial biofilms harvested from murine chronic wounds; assay: Ex vivo treatment of murine chronic wound biofilms: biomass degraded; format: cell-based; conditions: 5% enzyme solutions, 1 hour
Excerpt: (§2) Murine chronic wound model. A murine chronic wound model has been previously described [Dalton T, Dowd S E, Wolcott R D, Sun Y, Watters C, Griswold J A, et al. An in vivo polymicrobial biofilm wound infection model to study interspecies interactions. PLoS One. 2011; 6(11):e27317. Epub 2011/11/15. Brown R L, Greenhalgh D G. Mouse models to study wound closure and topical treatment of infected wounds in healing-impaired and normal healing hosts. Wound Repair Regen. 1997; 5(2):198-204. Epub 1997/04/01. Rumbaugh K P, Diggle S P, Watters C M, Ross-Gillespie A, Griffin A S, West S A. Quorum sensing and the social evolution of bacterial virulence. Curr Biol. 2009; 19(4):341-5. Epub 2009/02/24, relevant portions incorporated herein by reference]. […] Percent dispersal, percent biomass degraded, and antibiotic tolerance were calculated as with the LWM, described above.
(§3) In order to determine if the results obtained in vitro translated to a more clinically relevant model, the inventors tested the ability of GH solutions to degrade the biomass of, and disperse the cells from, biofilms grown in vivo. […] For analysis of biomass degradation, the inventors measured the weights of the extracted wound-beds before and after treatment with GH, and compared the percent reduction in weight to that of biofilms treated with heat-inactivated GH. […]

[4] = test system: S. aureus and P. aeruginosa biofilms; assay: Lubbock Chronic Wound Biofilm Model (wound-like media); format: cell-based
Excerpt: Lubbock Chronic Wound Biofilm Model. The Lubbock Chronic Wound Biofilm Model, or Lubbock wound model (LWM), has been previously described [Sun Y, Dowd S E, Smith E, Rhoads D D, Wolcott R D. In vitro multispecies Lubbock chronic wound biofilm model. Wound Repair Regen. 2008; 16(6):805-13. Epub 2009/01/09. DeLeon S, Clinton A, Fowler H, Everett J, Horswill A R, Rumbaugh K P. Synergistic interactions of Pseudomonas aeruginosa and Staphylococcus aureus in an in vitro wound model. Infect Immun. 2014; 82(11):4718-28. Epub 2014/08/27. Dalton T, Dowd S E, Wolcott R D, Sun Y, Watters C, Griswold J A, et al. An in vivo polymicrobial biofilm wound infection model to study interspecies interactions. PLoS One. 2011; 6(11):e27317. Epub 2011/11/15, relevant portions incorporated herein by reference]. Briefly, wound-like media (50% bovine plasma, 45% Bolton broth, 5% laked horse blood) was inoculated with […] bacterial cells, and incubated for 48 hours, statically, at 37° C. […] Percent bacterial cell dispersal was calculated by finding the quotient of […]. Percent biomass degraded was calculated by rinsing to remove the post-treatment supernatant, weighing the remaining biomass, and finding the quotient of the post-treatment biofilm weight divided by the pre-treatment biofilm weight. […]

[5] = test system: S. aureus and P. aeruginosa; assay: Total CFU after GH treatment in vitro (bactericidal activity); format: cell-based; conditions: 5% GH solutions, 30 minutes
Description: as §1

[6] = test system: S. aureus and P. aeruginosa polymicrobial biofilms harvested from murine chronic wounds; assay: Ex vivo treatment of murine chronic wound biofilms: cell dispersal; format: cell-based; conditions: 5% enzyme solutions, 1 hour, vs vehicle and heat-inactivated controls
Excerpt: as §2, §3

[7] = test system: bioluminescent P. aeruginosa; assay: Antibiotic protection and infection clearance in vivo (IVIS); set-up: species or system mice
Description: Glycoside hydrolase and antibiotic treatments. Established infections were treated via topical application of vehicle control, heat-inactivated GH, antibiotic alone (or in combination with heat-inactivated GH), GH alone, or GH plus antibiotic (meropenem). Briefly, woundbeds were irrigated with a 10% α-amylase and cellulase (in a 1:1 combination) solution in three separate topical infusions with 30 minutes of dwell time for each, with or without antibiotics. Septicemia was determined by monitoring animals for signs of systemic illness (lethargy, loss of appetite, labored breathing, tremors), and moribund mice were euthanized via phenobarbital injection. […] In order to image dispersal in vivo, the inventors used a Lumina II XR In Vivo Imaging System (IVIS®). Mice with established wound infections were administered GH therapy, and imaging occurred immediately following treatment, and every 4-5 hours subsequently. For experiments involving systemic antibiotic therapy, peritoneal dosing of 300 mg/kg meropenem occurred 4 hours prior to, and 8 hours following GH treatment. […]
To test if concurrent systemic or topical antibiotics can protect against dispersal-mediated septicemia, 48-hour chronic wound infections comprised of bioluminescent P. aeruginosa were treated with 10% GH as above, and monitored via IVIS for systemic spread.

Compound: cellulase
- Summary (biofilm-disrupting ability) (biofilms): shown to cause the dispersal of S. aureus
- biofilm inhibition / disruption in earlier studies (biofilms; literature): inhibits biofilm growth by Burkholderia cepacia and Pseudomonas aeruginosa
- degradation of pre-formed biofilms (crystal violet) ([1]; 0.0025%, 10 minutes): significantly degraded
- biomass of the biofilms (retention of crystal violet stain) ([1]; 0.25% GH solution, 30 minutes, 48 h biofilms): significant reduction in biomass
- percent dispersal [2]: significant amount of dispersal
- percent biomass degraded [3]: able to degrade
- disassociation of biofilms cultured in wound-like media ([4]; 10%, 1 hour, 24-hour-old polymicrobial biofilms): completely disassociates
- total CFU (supernatant + biofilm), bactericidal activity [5]: no bactericidal activity
- percent dispersal [6]: significantly more total cell dispersal

Compound: Hyaluronidase [reference compound]
- Summary (biofilm-disrupting ability) (biofilms): against HA-containing biofilms, dispersal

Compound: C[C@@H](O)[C@H]1C(=O)N2C(C(=O)O)=C(S[C@@H]3CN[C@H](C(=O)N(C)C)C3)[C@H](C)[C@H]12 [meropenem]
- protection against GH dispersal-induced dissemination ([7]; systemic meropenem (300 mg/kg) with 10% GH): prevented dissemination of P. aeruginosa
- protection against GH dispersal-induced dissemination ([7]; topical meropenem (3 mg/ml) with 10% GH): prevented dissemination of P. aeruginosa

Compound: gentamicin sulfate [reference compound]
- cells remaining viable after gentamicin treatment ([4]; P. aeruginosa and S. aureus co-cultured in the LWM, gentamicin alone): approximately half
